US7718768B2, “Biologically active peptide [sequence]” (CMS Peptides Patent Holding Company Limited, priority 2001, dated 2010)
Marks after values point to notes of the source that are not given here. No end group written: not given here.

Experiments:
[1] = system: anti-SRBC antibody; assay: Sheep Red Blood Cell (SRBC) hemolysis test, anti-SRBC antibody formation; type: in vivo, BALB/c mice; conditions: SRBC on day 12, IFN-γ and IL-2 groups 3×10^5 IU/kg/day, X ± SD
Description: Sheep red blood cells (SRBC) were prepared by collecting blood from cervical vein and put into a sterile flask with glass beads. The flask was shaken for 3 minutes and the blood then mixed with Alsever solution (glucose 2.05 g, NaCl 0.4 g, […] 0.8 g, adjust to 100 ml with distilled water) and stored at 4° C. Immediately before use, samples were centrifuged at 130 g, 5 minutes to collect the SRBC. The cells were washed two times by re-suspension and centrifugation in normal saline. Then the cell pellet was collected by centrifugation at 180 g for 10 minutes and re-suspended in saline to make the final working SRBC suspension, 2% (v/v).
Complement was prepared by adding 10 volumes of fresh Cavy serum into one volume centrifuge packed SRBC, and then gently shaking for 30 minutes at 4° C. The SRBC was removed by centrifugation at 200 g for 10 minutes. 10 volumes of normal saline were added to obtain the working complement solution.
The test substances were administered as described in section 1.1, plus intraperitoneal injection 0.2 ml SRBC per mouse on day 12. On the day after the last test substance administration (day 16), blood was collected from the eye canthus and left at room temperature for one hour for serum exudation. After centrifugation at 200 g for 10 minutes, the serum was diluted by 500 times with normal saline.
To 1 ml diluted mouse serum of each mouse, 0.5 ml SRBC suspension was added. Ice cold. Then 1 ml working complement solution was added and incubated at 37° C. water bath for 10 minutes. Reactions were terminated by ice cold. Samples were then centrifuged at 200 g for 10 minutes to obtain the supernatant.
To 1 ml of this supernatant, 3 ml Drabkin solution was added and left at room temperature for 10 minutes. OD540nm was obtained.
Reference OD540nm was obtained by mixing 0.25 ml SRBC suspension with Drabkin solution to 4 ml and placed at room temperature for 10 minutes before OD540nm was taken. Sample serum index=(OD540nm of test sample[…]reference OD540nm)×500 3. The Effect of Peptides on the Phagocytosis Function of Mononuclear Phagocyte and the Weight of Immune Organ^[8,9].

[2] = system: T lymphocyte; assay: T lymphocyte transformation test (ConA, MTT) on spleen cells of treated mice; type: in vivo, BALB/c mice; parameters: key: OD of assay wells divided by OD of control wells; conditions: IFN-γ and IL-2 groups 3×10^5 IU/kg/day, X ± SD
Description: (§1) The above substances were all dissolved in 0.5 ml saline and injected intraperitoneal (i.p.) for 15 continuous days, once per day.
(§2) Ten mice per group. The day after the last test substance administration, the mice were sacrificed by cervical dislocation. The spleen was isolated aseptically and manually dispersed in cold D-Hank's solution using an injection needle. The dispersed cell suspension was further sieved through a 100 gauge 150 μm diameter stainless steel sieve. After centrifugation at 200 g for 10 minutes, the supernatant was discarded. The cell pellet was re-suspended in 10 volume of Tris-NH4Cl buffer and then kept standing still for 10 minutes at room temperature. The suspended cells were collected by centrifugation at 150 g for 10 minutes. The cells were washed 2-4 times with cold D-Hank's solution by re-suspending and collecting by centrifugation with condition as described above. The washed cells were then diluted to the desired cell densities by RPMI-1640 culture medium, containing 10% fetal bovine serum.
(§3) Spleen cells of density 1×10^6/ml were placed onto a 96 wells cell culture plate, 100 μl/well, three parallel wells each of the assay sample and control sample per mouse. To the assay wells, 100 μl/well ConA of 100 μg/ml in RPMI-1640 was added, and 100 μl/well plain RPMI-1640 was used for the controls. The cells were incubated for 66 hrs at 37° C., 5% CO2. The cells were then pelleted by centrifugation at 150 g for 10 minutes.
50 μl/well MTT of 1 mg/ml in RPMI-1640 was added to the cell pellet and the cells re-suspended by shaking for 2 minutes. The incubation was continued for 4 hours. The supernatant was discarded after centrifugation at 150 g for 10 minutes. 120 μl 40 mM HCl-2-propanol was added to the cell pellet and shaken for 3 minutes. to obtain OD570nm of each well referenced at 630 nm. An ELISA reader was used
Each mouse formed three assay wells and three control wells. The Stimulation Index (SI) of each mouse was obtained by first deriving the average OD of the three parallel wells, then dividing the value of the assay wells by the control wells.

[3] = system: T lymphocyte; assay: T lymphocyte IL-2 secretion test (HT-2 cell bioassay of ConA supernatant); type: in vivo, BALB/c mice; conditions: IFN-γ and IL-2 groups 3×10^5 IU/kg/day, X ± SD
Description: as §1, §3
HT-2 cells at log phase were collected by centrifugation at 150 g for 10 minutes, and washed three times with cold Hank's solution by re-suspension and centrifugation. The collected HT-2 cells were re-suspended in RPMI-1640 and incubated at 37° C., 5% CO2 for 30 minutes. The cells were further washed twice with RPMI-1640 by re-suspension and centrifugation, and re-suspended to final concentration of 2×10^5/ml with RPMI-1640.
rIL-2 was diluted to the following concentration with RPMI-1640: 500 IU/ml, 250 IU/ml, 125 IU/ml, 62.5 IU/ml, 31.25 IU/ml, and […].
A 96 well cell culture plate was set up with three parallel wells per combination:
Negative control: 100 μl RPMI-1640+100 μl HT-2 cell suspension
rIL-2 standard: 100 μl rIL-2 solution+100 μl HT-2 cell suspension
Assay well: 100 μl diluted supernatant+100 μl HT-2 cell suspension
The plate was incubated at 37° C., 5% CO2 for 68 hours, then centrifuged at 150 g for 15 minutes and the supernatant removed. 100 μl 0.5 mg/ml MTT in RPMI-1640 without phenolsulfonphthalein was added into each well. After shaking for 3-4 minutes to re-suspend the cells, continue to incubate for another 4 hours. Samples were then centrifuged at 150 g for 15 minutes and the supernatant was removed. To each well, 120 μl 40 mM HCl-2-propanol was added, mixed for 3-4 minutes and OD analyzed at 570 nm, referenced at 630 nm with an ELISA plate reader.
The average OD of the three parallel wells of each dilution was taken and plotted against concentration on a semi-log paper, concentration on the X-axis. The concentration at 50% OD saturation was obtained for both the testing supernatant and rIL-2.

[4] = immunity organ weight test (thymus gland index, spleen index); type: in vivo, BALB/c mice; conditions: X ± SD
Description: as §1
(§4) One day after the last test substance administration (day 16), the liver, spleen, and thymus gland were separated and blotted dry with filter paper and weighed. The phagocytosis index α was calculated as below: α=(^3√K)(W÷WLS) key: W: body weight WLS: weight of liver plus spleen Thymus gland index(%)=(thymus weight/body weight)×100% Spleen index(%)=(spleen weight/body weight)×100%

[5] = system: T lymphocyte; parameters: species or system BALB/c mice; conditions: mouse, in vivo, ip
[6] = system: NK cell; assay: NK cell cytotoxicity activity test (YAC-1 target cells, MTT) on spleen cells of treated mice; type: in vivo, BALB/c mice; conditions: IFN-γ and IL-2 groups 3×10^5 IU/kg/day, X ± SD
Description: as §1, §2
Mice spleen cells were prepared to 4×10^6/ml as described in section 1.1 above. Target cells YAC-1 were brought to log phase and adjusted to 1×10^5/ml. Using a 96 wells cell culture plate, 100 μl mouse spleen cells and 100 μl culture medium were added to the control well containing only the spleen cells; 100 μl target cells and 100 μl culture medium were added to the control well containing only target cells; 100 μl mouse spleen cells and 100 μl target cells were added to the NK activity assay well. Three parallel sets of the above were prepared per mouse.
Samples were centrifuged at 150 g for 10 minutes to collect the cells. The supernatant was discarded and 50 μl/well MTT of 1 mg/ml was added. The reaction mixture was then shaken for 2 minutes, and incubated at 37° C., 5% CO2 for 4 hours. The supernatant was discarded after centrifugation at 150 g for 10 minutes. 120 μl 40 mM HCl-2-propanol was added and shaken for 3 minutes. An ELISA reader was used to obtain OD570nm of each well referenced at 630 nm.

[7] = system: mononuclear phagocyte; assay: carbon particle clearance test, phagocytotic activity of mononuclear phagocyte; type: in vivo, BALB/c mice; parameters: key: α = (cube root of K)×(body weight ÷ liver+spleen weight); conditions: IFN-γ and IL-2 groups 3×10^5 IU/kg/day, X ± SD
Description: On the next day after the last test substance administration (day 16), the mice were injected with […] body weight India ink (5 times dilution with normal saline) from the tail vein.
One minute and five minutes after Indian ink injection, 20 μl blood was obtained from the eye can thus with a heparinized tubing. The blood was mixed with 2 ml 0.1% w/v Na2CO3 and then OD680nm obtained. The outline clear index K was calculated by the following formula: K=(lgA1−lgA2)÷(t2−t1) Key: A1: OD680nm at first minute A2: OD680nm at fifth minute t2: 5 minutes […]
as §4

[8] = peptide 5 μg/kg/day i.p. 15 days
[9] = peptide 500 μg/kg/day i.p. 15 days
[10] = peptide 0.5 μg/kg/day i.p. 15 days
[11] = peptide 50 μg/kg/day i.p. 15 days
[12] = peptide 5 μg/kg/day i.p. 15 days, IFN-γ and IL-2 groups 3×10^5 IU/kg/day
[13] = peptide 0.5 μg/kg/day i.p. 15 days, IFN-γ and IL-2 groups 3×10^5 IU/kg/day
[14] = peptide 50 μg/kg/day i.p. 15 days, IFN-γ and IL-2 groups 3×10^5 IU/kg/day
[15] = peptide 500 μg/kg/day i.p. 15 days, IFN-γ and IL-2 groups 3×10^5 IU/kg/day

Row | Substance | anti-SRBC antibody formation (sample serum index) [1, 8] | anti-SRBC antibody formation (sample serum index) [1, 9] | stimulation index (T lymphocyte transformation) [2, 9] | activity of T lymphocyte in secreting IL-2 [3, 8] [IU] | weight of spleen (spleen index) [4, 9] [%] | anti-SRBC antibody formation (sample serum index) [1, 10] | anti-SRBC antibody formation (sample serum index) [1, 11] | activity of T lymphocyte in secreting IFN [5] | NK cell cytotoxic activity (NK cell activity index) [6, 9] [%] | weight of thymus gland (thymus gland index) [4, 12] | weight of thymus gland (thymus gland index) [4, 13] | weight of thymus gland (thymus gland index) [4, 14] | weight of thymus gland (thymus gland index) [4, 15] [%] | also measured
1 | Ala Gly Asp Asp Ala Pro Arg Ala Val Phe (AGDDAPRAVF; listed as Sus scrofa) [CMS007] | 122 ± 12*^@^ Unit | 69 ± 17*^@ Unit | 1.6 ± 0.1 | 64 ± 12 | 0.32 ± 0.05 |  |  |  |  |  |  |  |  | stimulation index (T lymphocyte transformation) [2, 8]: 1.7 ± 0.1; activity of T lymphocyte in secreting IL-2 [3, 9]: 86 ± 15*^ IU
2 | LRVAPEEHPVL [CMS013] | 93 ± 28*^@ Unit | 80 ± 16*^@ Unit |  |  | 0.44 ± 0.07 | 7 ± 1* Unit | 70 ± 9*^@ Unit | 154 ± 15*^@^ IU | 84 ± 9 | 0.21 ± 0.05 % |  |  |  | phagocytotic index [7, 8]: 6.7 ± 0.2
3 | MATAASSSSL [CMS021] | 82 ± 30*^@ Unit |  | 1.6 ± 0.1 |  | 0.36 ± 0.04 | 57 ± 9*^@ Unit | 94 ± 20*^@^ Unit | 143 ± 17*^@^ IU |  | 0.20 ± 0.06 % |  |  |  | NK cell cytotoxic activity (NK cell activity index) [6, 11]: 88 ± 12*^@^ %
4 | VGMGQKDSYV [CMS020] | 89 ± 24*^@ Unit | 155 ± 35*^@^ Unit |  | 63 ± 11 |  | 10 ± 3* Unit |  |  |  | 0.24 ± 0.07*^@^ % | 0.23 ± 0.05*^@^ % | 0.27 ± 0.03*^@^ % | 0.19 ± 0.04 | NK cell cytotoxic activity (NK cell activity index) [6, 8]: 91 ± 6 %; phagocytotic index [7, 9]: 6.4 ± 0.6; weight of spleen (spleen index) [4, 13]: 0.68 ± 0.09*^@^ %
5 | Phe Glu Pro Ser Phe (FEPSF; listed as Sus scrofa) [CMS028] | 121 ± 48*^@^ Unit |  |  |  |  | 18 ± 5* Unit |  | 96 ± 13 IU | 90 ± 5 | 0.28 ± 0.06*^@^ % | 0.20 ± 0.06 % | 0.18 ± 0.04 % | 0.19 ± 0.02 | NK cell cytotoxic activity (NK cell activity index) [6, 10]: 79 ± 3 %
